Reference: patent US12643887B2, “Heterocyclic derivatives with cardiomyocyte proliferation activity for treatment of heart diseases” (Tongji University, priority 2019, dated 2026)
Values belong to the compound of their own block, whether it stands above or below them.

What was measured:
human HIPK1 = biological target: T1, human HIPK1 (Homo sapiens, UniProt Q86Z02); assay: HIPK1 enzyme assay (ADP-Glo); type: biochemical; details: ADP-Glo, ATP 5 μM; read-out: HIPK1 IC50
T1 construct: Recombinant human HIPK1 (156-555); GST (N); purchased SignalChem H03-11G; host or cells: Sf9 insect cells
T1 sequence (Q86Z02 156-555): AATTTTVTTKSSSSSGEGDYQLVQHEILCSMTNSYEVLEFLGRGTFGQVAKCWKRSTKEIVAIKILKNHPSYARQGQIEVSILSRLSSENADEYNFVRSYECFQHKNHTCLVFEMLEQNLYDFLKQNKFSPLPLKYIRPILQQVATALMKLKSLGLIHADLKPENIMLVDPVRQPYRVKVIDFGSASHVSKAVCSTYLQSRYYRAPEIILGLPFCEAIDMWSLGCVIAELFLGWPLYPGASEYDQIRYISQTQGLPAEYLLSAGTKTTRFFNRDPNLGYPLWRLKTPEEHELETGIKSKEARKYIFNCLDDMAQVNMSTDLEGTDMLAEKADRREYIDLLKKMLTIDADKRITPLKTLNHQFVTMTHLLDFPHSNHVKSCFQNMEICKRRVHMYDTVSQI
Experimental: The ability of compounds to inhibit human HIPK1 kinase activities was determined using a commercially available ADP-Glo™ Kinase Assay kit (Promega, Cat #V9102) according to the manufacturer's protocol.
Recombinant human HIPK1 (156-555) (expressed in Sf9 insect cells with an N-terminal GST tag) was purchased from SignalChem (Cat #H03-11G). Recombinant full length human MBP (expressed in E. Coli cells with an N-terminal GST tag) was purchased from SignalChem (Cat #M42-54G). This assay, run in a 384-well plate format, is a generic method for measuring kinase activities using an ADP-Glo Kinase Assay Kit. The basic assay procedure involves two steps: (1) Enzymatic step: inhibitors are incubated with the kinase and then ATP (included in the ADP-Glo Kinase Assay Kit) and the MBP protein are added to start the enzymatic reaction; (2) Detection step: after the kinase reaction, first ADP-Glo™ Reagent is added to terminate the kinase reaction and deplete the remaining ATP. Second, the Kinase Detection Reagent is added to simultaneously convert ADP to ATP and allow the newly synthesized ATP to be measured using a luciferase/luciferin reaction. The light generated is measured using a luminometer.
Briefly, HIPK1 (4 nM) in the enzymatic buffer solutions (40 mM Tris, pH 7.5, 20 mM MgCl2, 0.1 mg/ml BSA, 50 μM DTT) were mixed with various concentrations of inhibitors (dissolved in 100% DMSO). These solutions were incubated for 30 minutes at 25° C., and subsequently a mixture of substrate peptide and ATP was added with the final peptide and ATP concentrations at 0.05 mg/ml and 5 μM, respectively. The final reaction mixture of enzyme-substrate-ATP-compound was incubated for 90 minutes at 25° C.
Afterwards ADP-Glo™ Reagent was added and the mixture was incubated at 25° C. for 60 minutes. Then Kinase Detection Reagent was added, and the final mixture was incubated at 25° C. for 60 minutes. The luminescence signal of the final solution was measured on an Envision instrument (PerkinElmer). The percent (%) inhibition at each concentration of a compound is calculated relative to the luminescence signal in the Max and Min control wells contained within each assay plate. […] The concentrations and percent inhibition values for a test compound are plotted and the concentration of the compound required to achieve 50% inhibition (IC50) is determined with a four-parameter logistic dose response equation.

[1] = test system: Neonatal Rat Ventricular Myocytes (NRVMs); assay: Myocyte proliferation assay (EdU assay) in neonatal rat ventricular myocytes; type: cell-based; details: growth relative to blank myocyte growth without compound added; for Avg 1 uM (average myocyte proliferation): compound 1 uM; for Avg 3 uM (average myocyte proliferation): compound 3 uM; for Avg 10 uM (average myocyte proliferation): compound 10 uM
Experimental: 1. Isolation of and Culture Neonatal Rat Ventricular Myocytes (NRVMs)
Ventricles from neonatal rats were separated from the atria, cut into small pieces (about 2×2 mm^2) and then dissociated in Ca2+-free HBSS containing 0.125 mg ml-1 trypsin (Gibco), 10 μg ml-1 DNase II (Sigma) and 0.1 mg ml-1 collagenase type IV (Sigma). The digestion was carried out under constant stirring at 37° C. for 5 min. The supernatant was collected with FBS (Gibco) after each digestion period. After digestion, the collected supernatant was centrifuged at 1000 g for 10 min at room temperature, and then cell pellets were resuspended in DMEM (Gibco) supplemented with 10% FBS and with 100 uM 5-bromo-2′-deoxyuridine (Sigma). The resuspended cells were passed through a cell strainer ([…], BD Falcon) and seeded onto 100-mm plastic dishes for 2 h at 37° C. in a 5% CO2 to remove fibroblasts, the supernatant was then collected and plated onto 1% gelatin (Sigma)-coated dishes. 24 h after the seeding, the medium was changed to DMEM (Gibco) containing 2% FBS (Gibco), 1% insulin-transferrin-selenium (ITS; Gibco), 1% Penicillin-Streptomycin (Gibco). After 24 hours of low serum culture, remove the medium with DMEM (Gibco) containing 6% FBS (Gibco), 1% insulin-transferrin-selenium (ITS; Gibco), 1% Penicillin-Streptomycin (Gibco), different concentrations of compounds (the compounds were pre-diluted in the medium and the drug concentration was 10 uM, 3 uM, 1 uM, fully mixed). After 36 h add Edu substrate (Invitrogen) according to the manufacturer's guidelines, and then after 12 h cell can be used.
• 2.1. Immobilization: Remove the medium and fix the cells with […] in 200 ul (whichever is covered) for 15 min and wash the cells twice with 500 ul of PBS for 5 min each time. • 2.2. Broken membrane: Add 200 ul of 0.3% Triton-X 100 (diluted in PBS) to each well, incubate for 10-15 min at room temperature (the time should not be too long), and wash the cells twice with 500 ul of PBS for 5 min each time. • 2.3. Blocking: Add 200 ul of 10% normal goat serum (diluted with 0.1% PBST) to each well, incubate for 1 h at room temperature, and wash twice with 500 ul of 0.1% PBST for 5 min each time. • 2.4. Primary antibody: dilute the primary antibody (abcam, ab8295) to blocking solution at a ratio of 1:200, add 100 ul per well, incubate for 1 h at room temperature (may be slightly longer than 2-3 h), wash the cells twice with 500 ul 0.1% PBST for 5 min each time. • 2.5. Secondary antibody: Dilute the fluorescently labeled secondary antibody (abcam, ab150117) into blocking solution at a ratio of 1:200, add 100 ul per well, incubate for 1 h at room temperature (the time should not be too long), wash the cells twice with 0.1% PBST for 5 min each time, pay attention to the whole process. Protected from light. • 2.6. Edu staining (Invitrogen C10338) • 2.6.1 Prepare Click-iT® reaction cocktail according to Table 3. It was important to add the ingredients in the order listed in the table; otherwise, the reaction would not proceed optimally. Use the Click-iT® reaction cocktail within 15 minutes of preparation.
• 2.6.2 Add 0.1 mL of Click-iT® reaction cocktail to each well containing a coverslip. Rock the plate briefly to ensure that the reaction cocktail is distributed evenly over the coverslip. • 2.6.3 Incubate the plate for 30 minutes at room temperature, protected from light. • 2.6.4 Remove the reaction cocktail, then wash the cells twice with 0.1% PBST for 5 min each time. • 2.7. DAPI staining: DAPI stain was diluted to PBS at a ratio of 1:1000, 100 ul per well, incubated for 30 min at room temperature, and the cells were washed twice with PBS for 5 min each. 3. Data Analysis
We used Molecular Devices' Image Xpress Micro Confocal for high-throughput photo and data analysis.

SMILES: O=C1NC(Nc2ccccc2)=N/C1=C\c1ccc2ncsc2c1 [Example 6, (Z)-5-(benzo[d]thiazol-6-ylmethylene)-2-(phenylamino)-3,5-dihydro-4H-imidazol-4-one]
IC50 (human HIPK1): 0.1 to 1 µM
Avg 1 uM (average myocyte proliferation) [1]: *** (>50%)
Avg 3 uM (average myocyte proliferation) [1]: ** (10%-50%)
Avg 10 uM (average myocyte proliferation) [1]: * (<10% growth relative to blank myocyte growth without compound added.)

IC50 (human HIPK1): 0.1 to 1 µM
SMILES: Cn1cnc2cc(NC3=N/C(=C\c4ccc5ncsc5c4)C(=O)N3)ccc21 [Example 61, (Z)-5-(benzo[d]thiazol-6-ylmethylene)-2-((1-methyl-1H-benzo[d]imidazol-5-yl)amino)-3,5-dihydro-4H-imidazol-4-one]
Avg 1 uM (average myocyte proliferation) [1]: * (<10% growth relative to blank myocyte growth without compound added.)
Avg 3 uM (average myocyte proliferation) [1]: ** (10%-50%)

IC50 (human HIPK1): > 10 µM
SMILES: O=C1NC(Nc2ccccc2)=N/C1=C\c1ccc2sccc2c1 [Example 72, (Z)-5-(benzo[b]thiophen-5-ylmethylene)-2-(phenylamino)-3,5-dihydro-4H-imidazol-4-one]
Avg 1 uM (average myocyte proliferation) [1]: * (<10% growth relative to blank myocyte growth without compound added.)
Avg 3 uM (average myocyte proliferation) [1]: * (<10% growth relative to blank myocyte growth without compound added.)

IC50 (human HIPK1): > 10 µM
SMILES: CN(CC1CC1)C1=N/C(=C\c2ccc3ncsc3c2)C(=O)N1 [Example 33, (Z)-5-(benzo[d]thiazol-6-ylmethylene)-2-((cyclopropylmethyl)(methyl)amino)-3,5-dihydro-4H-imidazol-4-one]
Avg 1 uM (average myocyte proliferation) [1]: * (<10% growth relative to blank myocyte growth without compound added.)
Avg 3 uM (average myocyte proliferation) [1]: * (<10% growth relative to blank myocyte growth without compound added.)

IC50 (human HIPK1): 0.1 to 1 µM
SMILES: O=C1NC(Nc2ccc3ncsc3c2)=N/C1=C\c1ccc2nc[nH]c2c1 [Example 76, (Z)-5-((1H-benzo[d]imidazol-6-yl)methylene)-2-(benzo[d]thiazol-6-ylamino)-3,5-dihydro-4H-imidazol-4-one]
Avg 1 uM (average myocyte proliferation) [1]: * (<10% growth relative to blank myocyte growth without compound added.)
Avg 3 uM (average myocyte proliferation) [1]: ** (10%-50%)

SMILES: CN1C(=O)/C(=C/c2ccc3c(c2)OCO3)N=C1N(C)c1ccccc1 [Example 3, (Z)-5-(benzo[d][1,3]dioxol-5-ylmethylene)-3-methyl-2-(methyl(phenyl)amino)-3,5-dihydro-4H-imidazol-4-one]
IC50 (human HIPK1): > 10 µM
Avg 1 uM (average myocyte proliferation) [1]: * (<10% growth relative to blank myocyte growth without compound added.)
Avg 3 uM (average myocyte proliferation) [1]: * (<10% growth relative to blank myocyte growth without compound added.)
Avg 10 uM (average myocyte proliferation) [1]: * (<10% growth relative to blank myocyte growth without compound added.)

IC50 (human HIPK1): > 10 µM
SMILES: CN(CC1CC1)C1=N/C(=C\c2ccc3c(c2)OCCO3)C(=O)N1 [Example 19, (Z)-2-((cyclopropylmethyl)(methyl)amino)-5-((2,3-dihydrobenzo[b][1,4]dioxin-6-yl)methylene)-3,5-di hydro-4H-imidazol-4-one]
Avg 1 uM (average myocyte proliferation) [1]: * (<10% growth relative to blank myocyte growth without compound added.)
Avg 3 uM (average myocyte proliferation) [1]: * (<10% growth relative to blank myocyte growth without compound added.)
Avg 10 uM (average myocyte proliferation) [1]: * (<10% growth relative to blank myocyte growth without compound added.)

SMILES: O=C1NC(N(CC2CC2)c2ccccc2)=N/C1=C\c1ccc2c(c1)OCO2 [Example 10, (Z)-5-(benzo[d][1,3]dioxol-5-ylmethylene)-2-((cyclopropylmethyl)(phenyl)amino)-3,5-dihydro-4H-imidazol-4-one]
IC50 (human HIPK1): > 10 µM
Avg 1 uM (average myocyte proliferation) [1]: ** (10%-50%)
Avg 3 uM (average myocyte proliferation) [1]: * (<10% growth relative to blank myocyte growth without compound added.)
Avg 10 uM (average myocyte proliferation) [1]: *** (>50%)

SMILES: CN(C1=N/C(=C\c2ccc3c(c2)OC(F)(F)O3)C(=O)N1)c1ccccc1 [Example 17, (Z)-5-((2,2-difluorobenzo[d][1,3]dioxol-5-yl)methylene)-2-(methyl(phenyl)amino)-3,5-dihydro-4H-imidazol-4-one]
IC50 (human HIPK1): > 10 µM
Avg 1 uM (average myocyte proliferation) [1]: * (<10% growth relative to blank myocyte growth without compound added.)
Avg 3 uM (average myocyte proliferation) [1]: * (<10% growth relative to blank myocyte growth without compound added.)
Avg 10 uM (average myocyte proliferation) [1]: * (<10% growth relative to blank myocyte growth without compound added.)

SMILES: COc1ccc(N(C)C2=N/C(=C\c3ccc4c(c3)OCO4)C(=O)N2)cc1 [Example 12, (Z)-5-(benzo[d][1,3]dioxol-5-ylmethylene)-2-((4-methoxyphenyl)(methyl)amino)-3,5-dihydro-4H-imidazol-4-one]
IC50 (human HIPK1): > 10 µM
Avg 1 uM (average myocyte proliferation) [1]: * (<10% growth relative to blank myocyte growth without compound added.)
Avg 3 uM (average myocyte proliferation) [1]: ** (10%-50%)

SMILES: O=C1NC(Nc2ccccc2)=N/C1=C\c1ccc2[nH]ccc2c1 [Example 51, (Z)-5-((1H-indol-5-yl)methylene)-2-(phenylamino)-3,5-dihydro-4H-imidazol-4-one]
IC50 (human HIPK1): > 10 µM
Avg 1 uM (average myocyte proliferation) [1]: ** (10%-50%)
Avg 3 uM (average myocyte proliferation) [1]: ** (10%-50%)
Avg 10 uM (average myocyte proliferation) [1]: ** (10%-50%)

SMILES: CN(C1=N/C(=C\c2ccc3c(c2)OCO3)C(=O)N1)c1ccccc1 [Example 1, (Z)-5-(benzo[d][1,3]dioxol-5-ylmethylene)-2-(methyl(phenyl)amino)-3,5-dihydro-4H-imidazol-4-one]
IC50 (human HIPK1): > 10 µM
Avg 1 uM (average myocyte proliferation) [1]: * (<10% growth relative to blank myocyte growth without compound added.)
Avg 3 uM (average myocyte proliferation) [1]: *** (>50%)
Avg 10 uM (average myocyte proliferation) [1]: ** (10%-50%)
